Values quoted from earlier work, collected in patent US12161629B2, “Methods and compositions for treatment of glaucoma and related conditions” (Opus Genetics, Inc., priority 2018, dated 2024).
Structures can show the parent of a compound that is named as a salt. Where two headings read alike, the source gives them in different places.

Key:
[1] = test system: alpha-1 adrenergic receptor

Structure (SMILES)	effect on intraocular pressure (eyes of patients; in normotensive eyes or in eyes with elevated intraocular pressure)	effect on intraocular pressure (eyes of patients; in patients, Hara et al., Cardiovascular Drug Reviews (2005))	inhibitory activity, alpha-1 versus alpha-2 adrenergic receptor [1]
Cc1ccccc1N1CCN(CCc2nnc3n2CCCC3)CC1 [dapiprazole hydrochloride]	not significantly alter intraocular pressure		
CCCC(=O)N1CCCN(c2nc(N)c3cc(OC)c(OC)cc3n2)CC1 [bunazosin]		decreased intraocular pressure in patients	greater inhibitory activity towards (i) the alpha-1 adrenergic receptor compared to the (ii) alpha-2 adrenergic receptor
